15 compounds from US20240208912A1 (Mirati Therapeutics, Inc., priority 2021, published 2024) can be followed below.

For assay [1], the system named is HCT116 parental cells. Description: Proliferation assay (CellTiter-Glo, 10 days) in HCT116 parental cells. It is filed as cell-based. The following applies: CellTiter-Glo after 10 days of treatment. As to the method:
(§1) Control samples were analyzed in parallel.
Briefly, on Day 0, 250 HCT116 parental or HCT116 homozygous MTAP knockout cell were seeded in 96 well plates in McCoy's 5A supplemented with […] fetal bovine serum and pen/strep and the cells were incubated overnight at 37° C. plus 5% CO2.
The following day, cells were treated with DMSO vehicle control or a dose response of PRMT5 inhibitors and incubated at 37 C plus 5% CO2 for five days. On Day 6, the cells were trypsinized and split 1:10 into new 96-well plates with fresh medium containing the same concentration of PRMT5 inhibitor and incubated for an additional 5 days at 37° C. plus 5% CO^2.
On Day 11, the viability of the cells was measured using a CTG assay kit (CellTiter-Glo; Promega cat.no G7573) in accordance with the manufacturer's instructions. The IC50 values for each compound after 10 days of treatment were calculated using GraphPad PRISM software.

Assay [2] has as its system HCT116 homozygous MTAP knockout cells. Briefly: Proliferation assay (CellTiter-Glo, 10 days) in HCT116 homozygous MTAP knockout cells. The following applies: CellTiter-Glo after 10 days of treatment, read-out: Proliferation IC50 (nM) HCT116 MTAP_KO. It is filed as cell-based. In short, it runs like this: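 MTAP-null HCT116 clone made by CRISPR/Cas9 knockout of both alleles, tested beside parental cells. Cells dosed the day after seeding, split 1:10 on day 6 into fresh medium with the same compound level, and read on day 11 by CellTiter-Glo. IC50 taken after 10 days of exposure.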

For assay [3], the system named is PRMT5-dependent Symmetric Di-methyl Arginine signal in HCT116 parental cells. Briefly: SYM11 In-Cell Western in HCT116 parental cells. As to conditions: HCT116 parental cells, 4 days of treatment, SYM11/DRAQ5 ratio as percent of DMSO control, read-out: In-cell-Western (SYM11) IC50 (nM) HCT216 parental. It is filed as cell-based. As to the method:
as §1
Briefly, on Day 0, 2,000 HCT116 parental or HCT116 homozygous MTAP knockout cells were seeded in 96 well plates in McCoy's 5A supplemented with 10% fetal bovine serum and pen/strep and the cells were incubated overnight at 37° C. plus 5% CO2. The following day, cells were treated with DMSO vehicle control or a dose response of PRMT5 inhibitors, and incubated at 37° C. plus 5% CO^2 for four days.
After 4 days of treatment, the cells were fixed by adding 50 μl of 4% paraformaldehyde solution to each well and the cells were incubated for 20 min at room temperature. The paraformaldehyde solution was removed, 150 μl of ice-cold methanol was added and the plate was placed −20° C. for 10 minutes. The methanol was removed, 150 μl of Odyssey Blocking buffer+0.05% Tween20 was added and the plate was incubated at room temperature with shaking for one hour.
The primary SYM11 antibody solution was removed by aspiration and the wells were washed three consecutive times with phosphate buffered saline containing 0.1% Tween-20 (PBST).
The secondary antibody solution was removed by aspiration and the wells were washed three consecutive times with PBST.
The SYM11 signal and the DRAQ5 signal were quantified using a Li-Cor Odyssey machine reading at […], respectively. The SYM11/DRAQ5 ratio was used to calculate the inhibition of Symmetric Dimethyl Arginine as percent of DMSO control.

The target in assay [4] is T1, PRMT5/MEP50 complex (Homo sapiens, UniProt O14744).
T1 construct: purchased Reaction Biology Corporation
T1 sequence (O14744 2-637 limits assumed): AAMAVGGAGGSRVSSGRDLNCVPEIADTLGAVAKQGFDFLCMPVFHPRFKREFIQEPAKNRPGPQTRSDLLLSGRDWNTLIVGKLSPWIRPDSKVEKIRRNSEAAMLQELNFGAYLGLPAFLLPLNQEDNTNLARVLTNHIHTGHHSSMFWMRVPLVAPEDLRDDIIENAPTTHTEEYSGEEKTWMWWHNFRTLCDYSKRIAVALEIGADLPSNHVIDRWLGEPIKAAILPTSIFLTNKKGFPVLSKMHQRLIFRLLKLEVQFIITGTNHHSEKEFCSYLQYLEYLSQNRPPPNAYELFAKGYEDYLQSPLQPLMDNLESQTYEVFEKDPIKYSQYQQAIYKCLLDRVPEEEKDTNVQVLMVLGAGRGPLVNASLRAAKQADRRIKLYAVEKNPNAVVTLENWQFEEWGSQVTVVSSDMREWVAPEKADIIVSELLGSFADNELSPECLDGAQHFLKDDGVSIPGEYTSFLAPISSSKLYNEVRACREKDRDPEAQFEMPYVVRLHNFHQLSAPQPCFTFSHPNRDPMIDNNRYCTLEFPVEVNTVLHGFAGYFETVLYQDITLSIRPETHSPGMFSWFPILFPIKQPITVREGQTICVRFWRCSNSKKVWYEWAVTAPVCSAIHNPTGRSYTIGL
T1 sequence (Q9BQA1 2-342 partner limits assumed): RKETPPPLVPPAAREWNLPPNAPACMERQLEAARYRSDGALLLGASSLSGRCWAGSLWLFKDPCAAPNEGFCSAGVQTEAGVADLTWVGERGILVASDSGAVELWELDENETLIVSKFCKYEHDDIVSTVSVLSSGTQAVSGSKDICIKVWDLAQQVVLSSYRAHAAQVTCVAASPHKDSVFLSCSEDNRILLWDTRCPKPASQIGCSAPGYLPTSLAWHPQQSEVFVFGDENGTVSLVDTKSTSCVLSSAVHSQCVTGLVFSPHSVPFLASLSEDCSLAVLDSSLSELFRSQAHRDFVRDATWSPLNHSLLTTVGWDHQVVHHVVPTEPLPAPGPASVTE
Briefly: PRMT5:MEP50 HotSpot Assay (full-length histone H2A substrate, plus and minus MTA). It is filed as biochemical. The following applies: IC50 + 2 μM MTA, in the presence of 2 μM MTA. A digest of the protocol: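 Radiometric HotSpot format using recombinant full-length histone H2A as substrate, run with and without MTA. Reactions were stopped and spotted onto filter paper. Tritiated H2A was quantified by scintillation counting.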

Assay [5] deals with PRMT5-dependent Symmetric Di-methyl Arginine signal in HCT116 homozygous MTAP Knockout cells. Description: SYM11 In-Cell Western in HCT116 homozygous MTAP knockout cells. It is filed as cell-based. As to conditions: 4 days of treatment, SYM11/DRAQ5 ratio as percent of DMSO control, read-out: In-cell-Western (SYM11) IC50 (nM) HCT116 MTAP_KO. A digest of the protocol: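 HCT116 cells with CRISPR homozygous MTAP knockout, alongside parental cells, treated four days with PRMT5 inhibitor dose response at 37° C., 5% CO2 in McCoy's 5A with 10% FBS.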

Assay [6] has as its target T1, PRMT5/MEP50 complex. Briefly: PRMT5:MEP50 FlashPlate Assay (histone H4 peptide substrate, plus and minus MTA). It is filed as biochemical. As to conditions: in the absence of MTA, read-out: IC50. As to the method: The PRMT5 inhibitory activity of compounds of the present invention was determined using either a PRMT5:MEP50 FlashPlate Assay (Reaction Biology Corporation) or a PRMT5:MEP50 HotSpot Assay (Reaction Biology Corporation).

Where two headings read alike, the source gives them in different places.

As for `N#Cc1c(OC2CC2)cc(Cl)c(F)c1-c1c(-c2ccc3c(=O)[nH]nc(CN)c3c2)cnn1C(F)F` (atropisomer, axis not shown; (M)) [Example 16-106, (M)-2-(4-(4-(aminomethyl)-1-oxo-1,2-dihydrophthalazin-6-yl)-1-(difluoromethyl)-1H-pyrazol-5-yl)-4-chloro-6-cyclopropoxy-3-fluorobenzonitrile], the IC50 in assay [1] (Homo sapiens, HCT-116, 240 h) turned out to be 1950 nM; in assay [2] (Homo sapiens, HCT-116, 240 h) it was 11 nM.
Consider `Cn1ncc(-c2ccc3c(=O)[nH]nc(CN)c3c2)c1-c1c(F)cc2ccccc2c1C#N` (single isomer, unassigned) [Example 16-1], for which the values for the IC50 in assay [1], in assay [3] and in assay [4] were 757 nM, 316 nM and 38 nM, respectively.
As for `Cn1ncc(-c2ccc3c(=O)[nH]nc(CN)c3c2)c1-c1c(F)cc2ccccc2c1C#N` (single isomer, unassigned) [Example 16-2], the IC50 in assay [1] was 5920 nM; in assay [2] (Homo sapiens, HCT-116, 240 h), 224 nM; in assay [3] it was more than 1000 nM; in assay [4], 111 nM; in assay [5], 73 nM.
Turning to `Cc1c(F)c(-c2c(-c3ccc4c(=O)[nH]nc(CN)c4c3)cnn2C)c(C#N)c2ccccc12` (single isomer, unassigned) [Example 16-13, (P)-2-[4-[4-(aminomethyl)-1-oxo-2H-phthalazin-6-yl]-2-methyl-pyrazol-3-yl]-3-fluoro-4-methyl-naphthalene-1-carbonitrile], the IC50 in assay [1] was 770 nM; in assay [2] it was 211 nM; in assay [3] it was more than 1000 nM; in assay [4], 237 nM; in assay [5] it was 232 nM.
The matching figures for `Cc1c(F)c(-c2c(-c3ccc4c(=O)[nH]nc(CN)c4c3)cnn2C)c(C#N)c2ccccc12` (single isomer, unassigned) [Example 16-14, (M)-2-[4-[4-(aminomethyl)-1-oxo-2H-phthalazin-6-yl]-2-methyl-pyrazol-3-yl]-3-fluoro-4-methyl-naphthalene-1-carbonitrile]: 4400 nM, 8 nM, 378 nM, 12.3 nM and 3 nM.
As to `Cn1ncc(-c2ccc3c(=O)[nH]nc(CN)c3c2)c1-c1c(F)ccc(OC2CC2)c1C#N` (single isomer, unassigned) [Example 16-21, (P)-2-[4-[4-(aminomethyl)-1-oxo-2H-phthalazin-6-yl]-2-methyl-pyrazol-3-yl]-6-(cyclopropoxy)-3-fluoro-benzonitrile], the IC50 in assay [1] (Homo sapiens, HCT-116, 240 h) came to 4210 nM; in assay [2] it was 112 nM; in assay [3], 4480 nM; in assay [4] it was 462 nM; in assay [5], 65 nM.
On to `Cn1ncc(-c2ccc3c(=O)[nH]nc(CN)c3c2)c1-c1c(F)ccc(OC2CC2)c1C#N` (single isomer, unassigned) [Example 16-22, (M)-2-[4-[4-(aminomethyl)-1-oxo-2H-phthalazin-6-yl]-2-methyl-pyrazol-3-yl]-6-(cyclopropoxy)-3-fluoro-benzonitrile], for which the IC50 in assay [1] was found to be 3620 nM; in assay [2], 17 nM; in assay [3], 1060 nM; in assay [4], 107 nM; in assay [5], 4 nM.
Take `CCOc1cc(-c2cnn(C)c2-c2c(F)c(C)c3cc(Cl)cnc3c2C#N)cc2c(CN)n[nH]c(=O)c12` (single isomer, unassigned) [Example 16-100, (M)-7-(4-(4-(aminomethyl)-8-ethoxy-1-oxo-1,2-dihydrophthalazin-6-yl)-1-methyl-1H-pyrazol-5-yl)-3-chloro-6-fluoro-5-methylquinoline-8-carbonitrile]: the IC50 in assay [1] (Homo sapiens, HCT-116, 240 h) was more than 10000 nM; in assay [4], 1060 nM.
As to `Cc1c(F)c(-c2c(-c3cc(Cl)c4c(=O)[nH]nc(CN)c4c3)cnn2C)c(C#N)c2cc(Cl)cnc12` (single isomer, unassigned) [Example 16-110, (M)-6-(4-(4-(aminomethyl)-8-chloro-1-oxo-1,2-dihydrophthalazin-6-yl)-1-methyl-1H-pyrazol-5-yl)-3-chloro-7-fluoro-8-methylquinoline-5-carbonitrile], the IC50 came out at 423 nM in assay [1] (Homo sapiens, HCT-116, 240 h); 16 nM in assay [2] (Homo sapiens, HCT-116, 240 h); 176 nM in assay [3] (Homo sapiens, HCT-116, 96 h); 19 nM in assay [4]; 6 nM in assay [5] (Homo sapiens, HCT-116, 96 h).
On to `CCOc1cc(-c2cnn(C)c2-c2c(F)c(C)c3ncc(Cl)cc3c2C#N)cc2c(CN)n[nH]c(=O)c12` (single isomer, unassigned) [Example 16-111, (P)-6-(4-(4-(aminomethyl)-8-ethoxy-1-oxo-1,2-dihydrophthalazin-6-yl)-1-methyl-1H-pyrazol-5-yl)-3-chloro-7-fluoro-8-methylquinoline-5-carbonitrile], for which the IC50 in assay [1] (Homo sapiens, HCT-116, 240 h) is 57 nM; in assay [2] (Homo sapiens, HCT-116, 240 h), 21 nM; in assay [3] (Homo sapiens, HCT-116, 96 h), 686 nM; in assay [4] it was 451 nM; in assay [5] (Homo sapiens, HCT-116, 96 h) it was 344 nM.
Turning to `CCc1cncc(-c2ccc3c(=O)[nH]nc(CN)c3c2)c1` [Example 3-13, 4-(aminomethyl)-6-(5-ethylpyridin-3-yl)-phthalazin-1(2H)-one], in assay [6], the IC50 turned out to be 420 nM.
With `COc1cccc(-c2c(-c3ccc4c(=O)[nH]nc(CN)c4c3)cnn2C)c1` [Example 4-93, 4-(aminomethyl)-6-(5-(3-methoxyphenyl)-1-methyl-1H-pyrazol-4-yl)phthalazin-1(2H)-one], the IC50 in assay [6] is 35 nM.
The same measure, in the same setting: to `Cc1cccc(-c2c(-c3ccc4c(=O)[nH]nc(CN)c4c3)cnn2C)c1` [Example 4-94, 4-(aminomethyl)-6-(1-methyl-5-(m-tolyl)-1H-pyrazol-4-yl)phthalazin-1(2H)-one] belongs 33 nM.
Consider `COCc1nc2sc(-c3c(-c4ccc5c(=O)[nH]nc(CN)c5c4)cnn3C)c(C#N)c2cc1Cl` [Example 4-272, 2-(4-(4-(aminomethyl)-1-oxo-1,2-dihydrophthalazin-6-yl)-1-methyl-1H-pyrazol-5-yl)-5-chloro-6-(methoxymethyl)thieno[2,3-b]pyridine-3-carbonitrile], for which the IC50 is more than 10000 nM in assay [1] (Homo sapiens, HCT-116, 240 h); 245 nM in assay [2] (Homo sapiens, HCT-116, 240 h); more than 1000 nM in assay [3] (Homo sapiens, HCT-116, 96 h); 260 nM in assay [4]; 55 nM in assay [5] (Homo sapiens, HCT-116, 96 h).
The matching figures for `CC(=O)Nc1cc(-c2cnn(C)c2-c2sc3ccccc3c2C#N)cc2c(CN)n[nH]c(=O)c12` [Example 15-8, N-(1-(aminomethyl)-7-(5-(3-cyano-benzo[b]thiophen-2-yl)-1-methyl-1H-pyrazol-4-yl)-4-oxo-3,4-dihydrophthal-azin-5-yl)acetamide]: 155 nM, 96 nM, 720 nM, 109 nM and 96 nM.
